Assay results reported in US20180085340A1, “METHOD FOR TREATING MELANOMA” (TCI CO., LTD, priority 2016, published 2018).

Test system: Homo sapiens skin malignant melanoma cells (A375.S2 cell line)
Experiment: MTT assay of survival of malignant melanoma cells
Assay type: cell-based
Settings: for Relative survival rate (%) / Average of absorbance values (n = 4): 48 hours; for Relative survival rate (%): relative to control group, n = 4; for Average of absorbance values (n = 4): OD at 570 nm, MTT
Experimental: Homo sapiens skin malignant melanoma cells (A375.S2 cell line) were cultivated for 24 hours, and then divided into four groups (5×10^3 cells for each group). The four groups were respectively cultivated in the following medium for 48 hours: • 1. Control group: a MEM-NEAA medium contains 1 mmol of sodium pyruvate and 10% of FBS. • 2. High-dose group: a MEM-NEAA medium contains 1 mmol of sodium pyruvate, 10% of FBS and 1 mg/ml of the compound of formula (I) obtained from Example 1. • 3. Middle-dose group: a MEM-NEAA medium contains 1 mmol of sodium pyruvate, 10% of FBS and 0.5 mg/ml of the compound of formula (I) obtained from Example 1. • 4. Low-dose group: a MEM-NEAA medium contains 1 mmol of sodium pyruvate, 10% of FBS and 0.25 mg/ml of the compound of formula (I) obtained from Example 1.
Thereafter, the absorbance value (optical density, OD) at 570 nm of each group was determined by the MTT assay.
Steps of the above cultivation and MTT assay were repeated four times. The absorbance values were averaged in each group, and the result of the control group was served as a basis for calculating the relative survival rate of other groups.

COc1cc([C@@H]2Oc3c(OC)cc(/C=C/C(=O)NCCc4ccc(O)cc4)cc3[C@@H]2C(=O)NCCc2ccc(O)cc2)ccc1O [compound of formula (I), N-trans-grossaminde]
Relative survival rate (%) (0.25 mg/ml compound in medium): 93.67% | Relative survival rate (%) (0.5 mg/ml compound in medium): 22.14% | Relative survival rate (%) (1 mg/ml compound in medium): 12.24% | Average of absorbance values (n = 4) (0.25 mg/ml compound): 0.733 | Average of absorbance values (n = 4) (0.5 mg/ml compound): 0.1732 | Average of absorbance values (n = 4) (1 mg/ml compound): 0.09575 | induction of apoptosis of malignant melanoma cells (conclusion drawn from MTT survival rates): effectively induce apoptosis
